# Assay results from PubChem BioAssay (NCI).
# Several values for one entry are separate records, joined by “and”; a condition that tells them apart may be missing. Equal values may be shown once.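 Method: 48-hour compound exposure of cells in 96-well plates, five concentrations, linear interpolation of endpoints. GI50 is the concentration that inhibits growth by half. The concentration for full growth arrest is given as TGI.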
# Key:
# Assay in all cases: growth of human tumour cells (NCI), 48 h
# HCC-2998 colon = tested on: HCC-2998 colon
# MALME-3M melanoma = tested on: MALME-3M melanoma
# NCI/ADR-RES ovarian = tested on: NCI/ADR-RES ovarian
# OVCAR-5 ovarian = tested on: OVCAR-5 ovarian
# OVCAR-8 ovarian = tested on: OVCAR-8 ovarian
# SF-268 CNS = tested on: SF-268 CNS
# SK-MEL-28 melanoma = tested on: SK-MEL-28 melanoma
# SNB-19 CNS = tested on: SNB-19 CNS
SMILES,GI50 (HCC-2998 colon),TGI (HCC-2998 colon),GI50 (MALME-3M melanoma),TGI (MALME-3M melanoma),GI50 (NCI/ADR-RES ovarian),TGI (NCI/ADR-RES ovarian),GI50 (OVCAR-5 ovarian),TGI (OVCAR-5 ovarian),GI50 (OVCAR-8 ovarian),TGI (OVCAR-8 ovarian),GI50 (SF-268 CNS),TGI (SF-268 CNS),GI50 (SK-MEL-28 melanoma),TGI (SK-MEL-28 melanoma),GI50 (SNB-19 CNS),TGI (SNB-19 CNS)
CN1CCN(C(=O)[C@@]2(C)CC[C@]3(C)CC[C@]4(C)C(=CC[C@@H]5[C@@]6(C)CCC(=O)NC(C)(C)[C@@H]6CC[C@]54C)[C@@H]3C2)CC1,1.51 µM,3.04 µM,1.45 µM,2.82 µM,3 µM,11.9 µM,1.65 µM,3.17 µM,3.94 µM,14.8 µM,3.04 µM,14.4 µM,1.56 µM,2.97 µM,1.81 µM,3.56 µM
COC(=O)c1ccc2nc(-c3cc4ccccc4n3C)n(CCCCOc3cc4c(cc3OC)C(=O)N3CCC[C@H]3C=N4)c2c1,–,–,1.07 µM,2.83 µM,3.02 µM,9.8 µM,0.811 µM,2.06 µM,0.8 µM,7.25 µM,0.29 µM,0.925 µM,0.652 µM,2.3 µM,2.15 µM,7.07 µM
N#CC(C#N)=CNCCN1CCN(C=C(C#N)C#N)CC1,–,–,–,> 100 µM,–,> 100 µM,–,> 100 µM,–,> 100 µM,–,> 100 µM,–,> 100 µM,–,> 100 µM
CNS(=O)(=O)OCC1OC(n2cnc3cncnc32)C(O)C1O (configuration not stated),> 100 µM,> 100 µM,> 100 µM,> 100 µM,> 100 µM,> 100 µM,> 100 µM,> 100 µM,> 100 µM,> 100 µM,> 100 µM,> 100 µM,> 100 µM,> 100 µM,> 100 µM,> 100 µM
CS(=O)(=O)N1CCC(n2c(=O)c(Oc3ccc(F)cc3F)cc3cnc(NC4CCOCC4)nc32)CC1,> 25 µM,> 25 µM,> 25 µM,> 25 µM,> 25 µM,> 25 µM,> 25 µM,> 25 µM,> 25 µM,> 25 µM,> 25 µM,> 25 µM,> 25 µM,> 25 µM,> 25 µM,> 25 µM
COc1cc2c(c(O)c1Cl)C(=O)c1c(O)cc(C[C@H](C)O)cc1[C@H]2[C@H]1c2cc(C[C@H](C)O)cc(O)c2C(=O)c2c1cc(OC)c(Cl)c2O,–,75 µM and > 100 µM,–,5.27 µM and 47.3 µM,54.8 µM and 58.8 µM,75 µM and > 100 µM,–,–,–,75 µM and > 100 µM,3.36 µM and 31.5 µM,75 µM and > 100 µM,–,75 µM and > 100 µM,–,75 µM and > 100 µM
Cc1cc(Cl)nc2ccc(Cc3ccc4nc(Cl)cc(C)c4c3)cc12,–,–,–,> 100 µM,–,> 100 µM,–,> 100 µM,–,> 100 µM,–,> 100 µM,–,> 100 µM,–,> 100 µM
CCc1ccccc1NC(=O)C(C#N)C1=C(Cl)C(=O)c2ccccc2C1=O (configuration not stated),–,–,–,19.5 µM,–,34.2 µM,–,35.2 µM,–,37 µM,–,49.8 µM,–,36.4 µM,–,72.3 µM
Cc1ccc([P+](Cc2ccccc2)(c2ccccc2)c2ccccc2)cc1,2.66 µM,25.1 µM,–,–,47.8 µM,> 100 µM,3.42 µM,> 100 µM,1.74 µM,11.3 µM,3.66 µM,> 100 µM,3.13 µM,25.8 µM,2.81 µM,> 100 µM
Cc1ccc([Se](=C(C(=O)c2ccccc2)C(=O)c2ccccc2)c2ccc(C)cc2)cc1,–,–,–,50.3 µM,–,> 100 µM,–,> 100 µM,–,> 100 µM,–,> 100 µM,–,> 100 µM,–,> 100 µM
O=C1Nc2ccccc2/C1=C\c1c(-c2ccccc2)nc2sccn12,–,–,1.92 µM,21.7 µM,1.17 µM,5.13 µM,2.7 µM,11.9 µM,4.58 µM,> 100 µM,5.86 µM,57.1 µM,8.98 µM,44.9 µM,3.53 µM,> 43.7 µM
CS(=O)(=O)CCNCc1ccc(-c2ccc3ncnc(Nc4ccc(OCc5cccc(F)c5)c(Cl)c4)c3c2)o1,> 10 µM and 4.1 µM and 8.86 µM,> 10 µM and 17.8 µM and 24.2 µM,> 10 µM and 1.66 µM and 2.67 µM,> 10 µM and 3.23 µM and 6.56 µM,5.52 µM and 2.9 µM and 4.32 µM,> 10 µM and > 100 µM and 50.3 µM,–,–,6.83 µM and 4.17 µM and 4.12 µM,> 10 µM and > 100 µM and 32.2 µM,> 10 µM and 5.18 µM and 11.6 µM,> 10 µM and > 100 µM and 43.4 µM,> 10 µM and 4.37 µM and 3.35 µM,> 10 µM and 16.5 µM and 18.9 µM,> 10 µM and 99.6 µM and 17.7 µM,> 10 µM and > 100 µM and 66.7 µM
COC(=O)c1cc(NC(=O)c2cc(NC(=O)c3cc([N+](=O)[O-])n(C)c3)cn2C)cn1C,4.26 µM,38.2 µM,–,–,> 100 µM,> 100 µM,30.9 µM,> 100 µM,> 100 µM,> 100 µM,> 100 µM,> 100 µM,–,–,34.2 µM,> 100 µM
COc1cc2c3c(n(CCCN(CCCN(CCCn4c5c(c6ccccc6c4=O)C(=O)c4ccccc4-5)C(=O)OC(C)(C)C)C(=O)OC(C)(C)C)c(=O)c2cc1OC)-c1cc2c(cc1C3=O)OCO2,–,–,> 100 µM,> 100 µM,> 100 µM,> 100 µM,–,–,> 100 µM,> 100 µM,> 100 µM,> 100 µM,> 100 µM,> 100 µM,> 100 µM,> 100 µM
O=C([O][Hg][c]1ccccc1)c1ccccc1,2 µM,3.82 µM,1.77 µM,3.39 µM,3.32 µM,> 27.4 µM,2.48 µM,5.56 µM,–,–,1.89 µM,4.78 µM,1.45 µM,2.93 µM,3.32 µM,8.7 µM
CC(=O)OCC12CN(C#N)C3C4COC(CC41)C1(C(=O)N(C)c4ccccc41)C32 (configuration not stated),–,86.6 µM,–,54.1 µM,–,95.8 µM,–,> 100 µM,–,55 µM,–,> 100 µM,–,62.9 µM,–,–
Cc1ccc(C)c2c1C(=O)N(c1ccc(F)cc1F)C2=O,–,–,> 100 µM,> 100 µM,> 100 µM,> 100 µM,> 100 µM,> 100 µM,> 100 µM,> 100 µM,> 100 µM,> 100 µM,> 100 µM,> 100 µM,> 100 µM,> 100 µM
O=Cc1cccc2ccc3ccccc3c12,–,94 µM,–,49.7 µM,–,38.3 µM,–,–,–,> 100 µM,–,43.1 µM,–,–,–,65.5 µM
O=C1/C(=C/c2ccc([N+](=O)[O-])s2)Oc2cc(Cl)ccc21,–,–,–,–,3.02 µM,> 100 µM,–,–,0.469 µM,2.59 µM,–,–,–,–,1.72 µM,4.52 µM
